Measurements as given in patent US4250321A, “1-Descarboxy-1-ketoester(ketoacid)-protaglandins” (American Cyanamid Company, priority 1979, dated 1981).
Like-named read-outs stand apart in the source and are kept apart here.

How the values were obtained:
Assay type in all cases: in vivo
[1] = test system: bronchospasms elicited by intravenous injections of 5-hydroxytryptamine, histamine or acetylcholine; experiment: Bronchodilator activity in guinea pigs by the Konzett procedure; conditions: Cavia porcellus, guinea pig, three logarithmic cumulative intravenous doses
Experimental: The compounds of this invention are useful as bronchodilators for the treatment of asthma and chronic bronchitis. Bronchodilator activity is determined in guinea pigs against bronchospasms elicited by intravenous injections of 5-hydroxytryptamine, histamine or acetylcholine by the Konzett procedure. [See J. Lulling, P. Lievens, F. El Sayed and J. Pringnot, Arzneimittel-Forschung, 18, 955 (1968).].
In Table which follows bronchodilator activity for representative compounds of this invention against one or more of three spasmogenic agents is expressed as an ED50 determined from the results obtained with three logarithmic cummulative intravenous doses. In this assay, these compounds of this invention provide an effect of longer duration than does natural 1-PGE1 or 1-PGE2.

[2] = test system: histamine-stimulated gastric acid secretion; experiment: Gastric acid secretion in the dog, Heidenhain pouch; conditions: 5 μg/kg by stomach tube, i.v. histamine 40 μg/kg/hr
Experimental: (§1) Experiments are carried out on six fasted female mongrel dogs, 3-7 years of age. Each had been provided with either a gastric fistula (4 dogs) or a Heidenhain pouch (2 dogs) using standard surgical techniques. Briefly, spool shaped cannulae of stainless steel (gastric fistual preparation) or titanium (Heidenhain pouch preparation) were inserted into narrow slits in the most dependent portion of the vertical stomach and retained in place by a purse-string suture. In the Heidenhain pouch preparation the slit made in a denervated sleeve of stomach which was isolated along the greater curvature. The cannulae were exteriorized through a trocar wound in the abdomen just left of midline and, as the purse string was tightened about the cannulae, the edges of the wound were inverted.
The intravenous histamine infusion ([…]) is started. At the same time, the first gastric secretion collection is begun. these secretions are collected by gravity drainage through the Heidenhain pouch cannula. Separate gastric samples are collected every fifteen minutes. When the volumes of two successive samples are within 10% of each other (usually occuring by the end of the fourth period--after one hour of histamine infusion) the drug is given to the animal (time 0). The latter of the two samples is considered to be the control for that particular experiment. The drug is administered through the smaller lumen of a double lumen Salem Sump Tube which has been cut to a length equal to the mouth to stomach distance of the dog. Following administration of the drug, the narrow lumen is flushed first with […], followed by 5 ml of air. Twenty-five to 30 ml of saline is then introduced into the stomach through the larger lumen and the tube withdrawn. (Note: Samples of gastric juice are taken from the pouch, drug is administered into the main stomach). Aliquots of each 15 minute gastric sample are titrated to pH 7 with 0.1 N NaOH using a Radiometer automatic titrator.
^2 Secretion is stimulated with intravenous histamine, 40 μg/kg/hr
and samples are collected through the pouch cannula at 15 minute
intervals. When the volume of two successive samples are within 10% of
each other, compound is administered (5 μg/kg) by stomach tube. The en
of the latter two periods is considered as 0 time (control).

[3] = test system: histamine-stimulated gastric acid secretion; experiment: Gastric acid secretion in the dog, gastric fistula; conditions: 5 μg/Kg by stomach tube, i.v. histamine 40 μg/kg/hr
Experimental: as §1
The drug is administered at zero time through the smaller lumen of a double lumen Salen Sump Tube which has been placed transorally into the animal's stomach. The length is adjusted to reach from the mouth just to the cannula site. Five ml of saline are then flushed through the smaller lumen, followed by 5 ml of air. Immediately following 20-25 ml of saline are placed into the stomach through the larger lumen of the double lumen tube and the tube withdrawn.
Thirty minutes after the drug is administered the gastric annula is opened, irrigated rapidly with 25-30 ml of saline 4 separate times and allowed to drain for 15 minutes.
At the end of the drainage period, the intravenous histamine infusion is started ([…]) and the first 15 minutes collection period of gastric secretions via the cannula is begun. The collection is changed every 15 minutes. The volume of each 15 minute sample is measured and an aliquot titrated to pH 7 with 0.1 N NaOH using a Radiometer automatic titrator.
^1 Secretion is stimulated with intravenous histamine, 40 μg/kg/hr
g/Kg) 45 minutes after administration of compound (5μg/Kg)? or vehicle
(control) by stomach tube. Secretions are collected from fistula annula.

[4] = bronchospasm by 5-hydroxytryptamine, read-out: ED50 5HT
[5] = bronchospasm by histamine, read-out: ED50 HIST.
[6] = bronchospasm by acetylcholine, read-out: ED50 ACH

SMILES | ED50 [1, 4] [µg/kg] | ED50 [1, 5] [µg/kg] | % INHIBITION ACID SECRETION, 0-15 minutes after compound ([2]; 0-15 min) [%] | % INHIBITION ACID SECRETION, 15-30 minutes after compound ([2]; 15-30 min) [%] | % INHIBITION ACID SECRETION, 30-45 minutes after compound ([2]; 30-45 min) [%] | % INHIBITION ACID SECRETION, 45-60 minutes after compound ([2]; 45-60 min) [%] | % INHIBITION ACID SECRETION, 60-75 minutes after compound ([2]; 60-75 min) [%] | % INHIBITION ACID SECRETION, 45-60 minutes after compound [3] [%] | % INHIBITION ACID SECRETION, 60-75 minutes after compound [3] [%] | % INHIBITION ACID SECRETION, 75-90 minutes after compound [3] [%] | % INHIBITION ACID SECRETION, 90-105 minutes after compound [3] [%] | % INHIBITION ACID SECRETION, 105-120 minutes after compound [3] [%] | ED50 [1, 6] [µg/kg]
CCCCCC(C)(O)/C=C/[C@H]1[C@H](O)CC(=O)[C@@H]1CCCCCCC(=O)C(=O)OCC (relative stereo) [dl-1,9-dioxo-1-carbethoxy-11α,15-dihydroxy-15-methyl-13-trans-prostene] | 4.22 | 6.05 | – | – | – | – | – | – | – | – | – | – | –
CCCCC(C)(O)C/C=C/[C@H]1[C@H](O)CC(=O)[C@@H]1CCCCCCC(=O)C(=O)OCC (relative stereo) [dl-1,9-dioxo-1-carbethoxy-11,16-dihydroxy-16-methyl-13-trans-prostene] | – | – | 20 | 28 | 34 | 21 | 12 | 97 | 91 | 76 | 72 | 56 | –
CCCCC(C)(O)C/C=C/[C@H]1[C@H](O)CC(=O)[C@@H]1C/C=C\CCCC(=O)C(=O)OCC (relative stereo) [dl-1,9-Dioxo-1-carbethoxy-11α,16-dihydroxy-16-methyl-5-cis-13-trans-prostadiene] | 9.51 | 9.31 | – | – | – | – | – | 96 | 62 | 59 | 56 | 47 | 5.92
C=CC(O)(C/C=C/[C@H]1[C@H](O)CC(=O)[C@@H]1C/C=C\CCCC(=O)C(=O)OCC)CCCC (relative stereo) [dl-1,9-Dioxo-1-carbethoxy-11α,16-dihydroxy-16-vinyl-5-cis-13-trans-prostadiene] | 0.665 | 2.26 | – | – | – | – | – | – | – | – | – | – | 3.41
